Source: ChEMBL document CHEMBL1201862, “PubChem BioAssay data set” (2004)
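96-well plates; 48 h exposure; 5 concentrations. Endpoints by linear interpolation between flanking doses. Not reached: highest tested concentration assigned. GI50 is the concentration that inhibits growth by half.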 The source made the active and inactive calls. No stated cut-off is given here; in the data, active = GI50 up to about 1.1 µM and inactive = higher.

Assays:
Assay in all cases: NCI-60 cell line screen, 48 h
[1] = tested on: NCI-H522
[2] = tested on: MDA-MB-435
[3] = tested on: UACC-62
[4] = tested on: OVCAR-3
[5] = tested on: TK-10
[6] = tested on: HCT-15
[7] = tested on: SNB-19
[8] = tested on: LOX IMVI
[9] = tested on: NCI-H226
[10] = tested on: MDA-MB-231
[11] = tested on: HOP-62
[12] = tested on: HL-60
[13] = tested on: CAKI-1
[14] = tested on: 786-0
[15] = tested on: ACHN
[16] = tested on: UO-31
[17] = tested on: OVCAR-4
[18] = tested on: NCI/ADR-RES
[19] = tested on: DU-145
[20] = tested on: MCF7
[21] = tested on: RPMI-8226
[22] = tested on: SF-295
[23] = tested on: T47D
[24] = tested on: KM12
[25] = tested on: EKVX
[26] = tested on: U-251
[27] = tested on: HCT-116
[28] = tested on: UACC-257
[29] = tested on: OVCAR-5
[30] = tested on: BT-549
[31] = tested on: SW-620
[32] = tested on: SK-MEL-2
[33] = tested on: Hs-578T
[34] = tested on: SK-MEL-28
[35] = tested on: HCC 2998
[36] = tested on: K562
[37] = tested on: OVCAR-8
[38] = tested on: SR
[39] = tested on: M14
[40] = tested on: NCI-H460
[41] = tested on: COLO 205
[42] = tested on: CCRF-CEM
[43] = tested on: SF-268
[44] = tested on: SK-MEL-5
[45] = tested on: SF-539
[46] = tested on: MDA-N
[47] = tested on: SN12C
[48] = tested on: HT-29
[49] = tested on: IGROV-1
[50] = tested on: NCI-H23
[51] = tested on: Malme-3M
[52] = tested on: A549
[53] = tested on: MOLT-4
[54] = tested on: HOP-92
[55] = tested on: SK-OV-3
[56] = tested on: PC-3
[57] = tested on: A498
[58] = tested on: SNB-75

For COc1ccc(N[S+]([O-])c2ccc(OC)cc2)cc1 (stereo unspecified), the GI50 [1] was 21.5 µM (inactive), the GI50 [2] was 15.9 µM (inactive) and the GI50 [3] was 14.6 µM (inactive). For the same compound, the GI50 [4] was > 100 µM (inactive), the GI50 [5] was > 100 µM (inactive) and the GI50 [6] was 11.2 µM. For the same compound, the GI50 [7] was 60.1 µM (inactive), the GI50 [8] was 17.4 µM (inactive) and the GI50 [9] was 55.5 µM (inactive). For the same compound, the GI50 [10] was 37.9 µM (inactive), the GI50 [11] was 61.8 µM (inactive) and the GI50 [12] was 41.2 µM (inactive). The GI50 [13] was 52.7 µM (inactive), the GI50 [14] was 84.9 µM (inactive) and the GI50 [15] was 95.1 µM (inactive). For the same compound, the GI50 [16] was 12.5 µM (inactive), the GI50 [17] was > 100 µM (inactive) and the GI50 [18] was 56.6 µM (inactive). The GI50 [19] was 64.9 µM (inactive), the GI50 [20] was 31.6 µM (inactive) and the GI50 [21] was 47 µM (inactive). The GI50 [22] was 24 µM (inactive), the GI50 [23] was 15.5 µM (inactive) and the GI50 [24] was 7.8 µM (inactive). For the same compound, the GI50 [25] was 88.1 µM (inactive), the GI50 [26] was 12.5 µM (inactive) and the GI50 [27] was 41.2 µM (inactive). The GI50 [28] was 69 µM (inactive), the GI50 [29] was > 100 µM (inactive) and the GI50 [30] was 14.8 µM (inactive). For the same compound, the GI50 [31] was 64.6 µM (inactive), the GI50 [32] was 16.9 µM (inactive) and the GI50 [33] was 34 µM (inactive). The GI50 [34] was > 100 µM (inactive), the GI50 [35] was 41.3 µM (inactive) and the GI50 [36] was 26.1 µM (inactive). For the same compound, the GI50 [37] was 82.2 µM (inactive), the GI50 [38] was 26.9 µM (inactive) and the GI50 [39] was > 100 µM (inactive). For the same compound, the GI50 [40] was 29 µM (inactive), the GI50 [41] was 72.1 µM (inactive) and the GI50 [42] was 45.5 µM (inactive). For the same compound, the GI50 [43] was 6.75 µM (inactive), the GI50 [44] was 18.8 µM (inactive) and the GI50 [45] was 14.6 µM (inactive). For the same compound, the GI50 [46] was 41.3 µM (inactive), the GI50 [47] was > 100 µM (inactive) and the GI50 [48] was 39.9 µM (inactive). For the same compound, the GI50 [49] was 5.53 µM (inactive), the GI50 [50] was > 100 µM (inactive) and the GI50 [51] was 25.5 µM (inactive). For the same compound, the GI50 [52] was 33.6 µM (inactive) and the GI50 [53] was 35.4 µM (inactive).

C=CC[C@@H](N)C(=O)N(C)[C@@H](C)[C@@H](O)c1ccccc1 was tested, and the GI50 [1] was 12.4 µM (inactive), the GI50 [2] was > 100 µM (inactive) and the GI50 [3] was > 100 µM (inactive). For the same compound, the GI50 [4] was > 100 µM (inactive), the GI50 [5] was > 100 µM (inactive) and the GI50 [6] was over 100 µM. The GI50 [7] was > 100 µM (inactive), the GI50 [8] was > 100 µM (inactive) and the GI50 [9] was > 100 µM (inactive). The GI50 [10] was > 100 µM (inactive), the GI50 [11] was > 100 µM (inactive) and the GI50 [12] was > 100 µM (inactive). The GI50 [13] was > 100 µM (inactive), the GI50 [14] was > 100 µM (inactive) and the GI50 [15] was > 100 µM (inactive). The GI50 [16] was > 100 µM (inactive), the GI50 [17] was > 100 µM (inactive) and the GI50 [18] was > 100 µM (inactive). The GI50 [19] was > 100 µM (inactive), the GI50 [54] was 54.6 µM (inactive) and the GI50 [22] was > 100 µM (inactive). For the same compound, the GI50 [23] was > 100 µM (inactive), the GI50 [24] was > 100 µM (inactive) and the GI50 [55] was > 100 µM (inactive). For the same compound, the GI50 [26] was > 100 µM (inactive), the GI50 [27] was > 100 µM (inactive) and the GI50 [28] was > 100 µM (inactive). The GI50 [56] was > 100 µM (inactive), the GI50 [30] was > 100 µM (inactive) and the GI50 [31] was > 100 µM (inactive). The GI50 [32] was > 100 µM (inactive), the GI50 [33] was > 100 µM (inactive) and the GI50 [34] was > 100 µM (inactive). The GI50 [37] was > 100 µM (inactive), the GI50 [39] was > 100 µM (inactive) and the GI50 [40] was > 100 µM (inactive). For the same compound, the GI50 [41] was > 100 µM (inactive), the GI50 [57] was > 100 µM (inactive) and the GI50 [42] was > 100 µM (inactive). For the same compound, the GI50 [43] was > 100 µM (inactive), the GI50 [44] was > 100 µM (inactive) and the GI50 [45] was > 100 µM (inactive). For the same compound, the GI50 [46] was > 100 µM (inactive), the GI50 [58] was 5.77 µM (inactive) and the GI50 [49] was 82.8 µM (inactive). For the same compound, the GI50 [50] was > 100 µM (inactive), the GI50 [52] was > 100 µM (inactive) and the GI50 [53] was > 100 µM (inactive).
